{"source": "patent US8536196B2", "about": "“Substituted 1,3-dioxanes useful as PPAR modulators” (Evolva SA, priority 2007, dated 2013)", "format_in_all_cases": "cell-based", "key": {"Gal4-PPARgammaLBD": {"target": "T1, Gal4-PPARgammaLBD (Homo sapiens, UniProt P37231)", "T1 construct": "expressed in transfected cells; host or cells: mouse embryonic fibroblasts (MEFs) or ME3 cells", "T1 sequence (P37231 204-505)": "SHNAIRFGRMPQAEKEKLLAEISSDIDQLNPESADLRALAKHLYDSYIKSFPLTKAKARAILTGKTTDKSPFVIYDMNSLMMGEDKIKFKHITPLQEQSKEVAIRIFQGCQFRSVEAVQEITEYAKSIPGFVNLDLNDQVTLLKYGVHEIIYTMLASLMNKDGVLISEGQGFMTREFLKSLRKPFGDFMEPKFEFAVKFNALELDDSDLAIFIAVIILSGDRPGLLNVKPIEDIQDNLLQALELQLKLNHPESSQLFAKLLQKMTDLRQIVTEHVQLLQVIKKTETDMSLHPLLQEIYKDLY", "test": "PPARgamma transactivation assay (Gal4-PPARgammaLBD, UASx4-TK-luc reporter)", "details": "10 μM", "text": "This is an example of a transactivation assay for determining PPAR gamma modulating activity.\nThe UASx-4-TK-luc reporter construct (where UAS refers to “upstream activator sequence”) contains four Gal4-responsive elements. The plasmid Gal4-PPARgammaLBD encodes a Gal4-DBD-PPARgamma-LBD fusion protein (i.e. the DNA-binding domain, DBD, of Gal4 fused to the ligand-binding domain, LBD, of PPARgamma) capable of transactivating the UASx-4-TK-luc reporter plasmid by binding to the UAS. The CMV-beta-galactosidase plasmid (where CMV is cytomegalovirus) is used for normalization of experimental values.\nThe cells were replated, typically in 24 well plates, so that at the time of transfection the cells are 50-70% confluent.\nBriefly, per well in a 24 well plate, UASx4TKIuc (0.2 μg) Gal4-PPARgammaLBD (or pM-hPPARgamma-LBD; 0.1 μg) and CMV-beta-galactosidase (0.05 μg) in 30 μL DMEM (free of serum and antibiotics) is mixed with 30 μL DMEM (free of serum and antibiotics) containing 1 μL metafectenein. The mixture is incubated at room temperature for 20 min to allow formation of nucleic acid-lipid complexes and then approximately 60 μL is added to each well containing the 50-60% confluent cells. […] Cells were harvested after 12-24 hours and luciferase and beta-galactosidase activities were measured according to standard protocols.\n“−” means that testing was not performed."}, "[1]": {"target": "T2, full length human PPARgamma (hPPARg2) (Homo sapiens, UniProt P37231)", "T2 construct": "expressed in transfected cells", "T2 sequence (P37231 1-505)": "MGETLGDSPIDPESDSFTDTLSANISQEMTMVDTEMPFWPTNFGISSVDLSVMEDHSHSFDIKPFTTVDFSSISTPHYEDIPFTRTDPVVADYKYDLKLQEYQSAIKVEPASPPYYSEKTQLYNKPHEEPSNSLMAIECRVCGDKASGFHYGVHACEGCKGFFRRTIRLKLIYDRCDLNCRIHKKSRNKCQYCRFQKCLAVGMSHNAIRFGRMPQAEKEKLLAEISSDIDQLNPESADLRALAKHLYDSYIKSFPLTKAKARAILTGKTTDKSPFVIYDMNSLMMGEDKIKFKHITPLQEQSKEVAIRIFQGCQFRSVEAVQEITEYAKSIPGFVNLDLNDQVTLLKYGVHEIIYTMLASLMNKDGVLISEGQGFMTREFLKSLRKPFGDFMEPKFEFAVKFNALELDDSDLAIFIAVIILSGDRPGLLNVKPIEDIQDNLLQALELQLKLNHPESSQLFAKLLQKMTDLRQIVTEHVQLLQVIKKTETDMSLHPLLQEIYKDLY", "test": "Transactivation assay with full length human PPARgamma", "method": "When this assay was carried out essentially as described above but with the full length human PPARgamma rather than with the PPARgamma ligand binding domain, activation of full-length hPPARg2 was seen to 64% of the Avandia positive control (FIG. 3)."}, "[2]": {"target": "T3, full length human PPARdelta (Homo sapiens, UniProt Q03181)", "T3 construct": "expressed in transfected cells", "T3 sequence (Q03181 1-441)": "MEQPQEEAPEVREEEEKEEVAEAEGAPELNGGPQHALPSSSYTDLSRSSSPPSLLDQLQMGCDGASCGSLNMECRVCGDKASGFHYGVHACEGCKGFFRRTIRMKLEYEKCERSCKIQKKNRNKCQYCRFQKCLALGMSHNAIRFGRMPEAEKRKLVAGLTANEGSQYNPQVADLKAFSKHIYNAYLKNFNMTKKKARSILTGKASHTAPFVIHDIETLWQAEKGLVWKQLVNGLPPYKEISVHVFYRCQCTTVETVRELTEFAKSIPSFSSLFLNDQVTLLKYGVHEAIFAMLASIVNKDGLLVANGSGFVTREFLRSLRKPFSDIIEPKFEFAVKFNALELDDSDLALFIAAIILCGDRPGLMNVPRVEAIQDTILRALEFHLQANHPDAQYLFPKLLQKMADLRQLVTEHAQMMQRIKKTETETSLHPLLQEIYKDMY", "test": "Transactivation assay with full length human PPARdelta"}, "hRXRαLBD": {"target": "T4, hRXRαLBD (Homo sapiens, UniProt P19793)", "T4 construct": "expressed in transfected cells", "T4 sequence (P19793 227-458 limits assumed)": "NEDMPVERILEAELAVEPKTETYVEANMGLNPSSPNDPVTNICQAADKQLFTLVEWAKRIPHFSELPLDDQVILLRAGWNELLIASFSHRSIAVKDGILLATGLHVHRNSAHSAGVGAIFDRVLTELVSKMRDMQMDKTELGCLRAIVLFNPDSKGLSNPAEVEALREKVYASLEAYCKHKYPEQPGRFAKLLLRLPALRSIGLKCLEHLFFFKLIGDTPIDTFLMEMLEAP", "test": "RXR transactivation assay", "method": "This example describes a retinoic acid X receptor transactivation assay.\nCompounds are tested for their ability to transactivate RXR essentially as described in Example 22."}, "3T3-L1 cells": {"test_system": "3T3-L1 cells", "test": "Inhibition of adipocyte differentiation assay (Oil Red O staining)", "method": "To test compounds as inhibitors of adipocyte differentiation, 3T3-L1 cells are grown as above until two-day postconfluence (designated day 0), after which the cells are induced to differentiate with DMEM containing 10% fetal bovine serum (FBS), 1 μM dexamethasone (Sigma), 0.5 mM methylisobutylxanthine (Sigma), 1 μg/ml insulin (Roche Molecular Biochemicals) and the test-compound. Cells induced to differentiate in presence of solvent of the test-compounds are used as positive control. After 48 h, the cells are re-fed with DMEM containing 10% FBS supplemented with the test compound or the positive control. From day 4, cells are grown in DMEM with 10% FBS and are changed every second day until day 8. At day 8, cells are stained with Oil Red O as described below.\nCells cultured as described above are used for Oil Red staining. Dishes are washed in PBS and cells were fixed in 3.7% paraformaldehyde for 1 h and stained with oil red O as described in (Hansen et al 1999). Oil red O solution stock solution is prepared by dissolving 0.5 g of Oil Red O (Sigma) in 100 mL of isopropanol. Oil re 0 working solution is prepared by diluting a stock solution with water (6:4) followed by filtration."}}, "data": [{"smiles": "O=C(O)CC/C=C\\CC1COC(c2ccccc2Cl)OC1c1ccccc1O", "note": "(racemic) [SN1, (Z)-6-(-2-(2-chlorophenyl)-4-(2-hydroxyphenyl)-1,3-dioxan-5-yl)hex-4-enoic acid]", "values": [{"measurement": "PPAR transactivation higher than with DMSO alone", "setting": "Gal4-PPARgammaLBD", "value": "about 10 fold"}, {"measurement": "activation of full-length hPPARg2, % of the Avandia positive control", "setting": "[1]", "value": 64, "unit": "%"}, {"measurement": "activation of full-length hPPARdelta", "setting": "[2]", "value": "no activation"}, {"measurement": "increase in RXR transactivation", "setting": "hRXRαLBD", "value": "no transactivation"}, {"measurement": "inhibition of adipocyte differentiation", "setting": "3T3-L1 cells", "value": "no significant effect"}]}]}
